The values below are quoted from earlier work in patent US7897820B2, “Process for preparing erianin” (Zhe Jiang Cell Biomedical Research Co., Ltd., priority 2005, dated 2011).

One series concerns microtubulin. The note with it: target is the microtubulin in the cell.
For series [1] the following is noted: compared with 5FU.
Another series has as its system tumor cell strain K256. The conditions noted are these: among dihydrobibenzyls and phenanthrenes in Dendrobium chrysotoxum.
For series [2], the system named is human leukemia HL-60 cells.

Turning to `COc1ccc(CCc2cc(OC)c(OC)c(OC)c2)cc1O` [Erianin, 2-methoxyl-5-[2-(3,4,5-trimethoxyphenyl)]ethyl phenol], the “effect on polymerizing of microtubulin” value in the series with microtubulin is “inhibit the polymerizing of microtubulin”. Besides, the side effect entry in series [1] is “far lower then 5FU”. Further, the “inhibitory effect on the growth of tumor cell strain K256” value in the series on tumor cell strain K256 is listed as “most active”. Also, the “inhibition of growth of human leukemia HL-60 cells” value in series [2] was “significantly inhibited the growth”. Besides, the tumor inhibitory rate with liver cancer of mouse is 50.82%.
